These are literature values, as cited in patent publication US20240238336A1, “COPPER NANOCLUSTERS, METHODS FOR OBTAINING SAME AND THE USE THEREOF IN THE TREATMENT OF MENKES DISEASE” (priority 2021, published 2024).

The data set relates to Menkes syndrome. Conditions: child; daily subcutaneous injections for two and a half years.

`N[C@@H](Cc1c[nH]cn1)C(=O)O.[Cu]` [copper histidine]: the development result is recorded as “continued to manifest severe developmental delays”; the epilepsy crises entry was “epilepsy crises were eliminated”; the “pigmentation of skin and hair” value is “improved pigmentation of the skin and hair”.
